Counter-ions that a name gives are not always drawn.
biological target: T1, HIV integrase (Human immunodeficiency virus type 1 group M subtype B, UniProt P12497, F1332H); assay: Determination of enzyme (HIV integrase) inhibitory activity; type: biochemical; conditions: recombinant HIV integrase (F185H), strand transfer ELISA, absorbance at 450 nm
T1 construct: HIV integrase full length gene; made in house; host or cells: Escherichia coli BL21(DE3), plasmid pET21a-INH
How it was run: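 Full-length integrase with F185H, expressed in E. coli and purified, was reacted for 60 min at 37 °C with compound and biotinylated donor DNA bound to streptavidin plates. Target DNA was added for 10 min, then anti-digoxigenin-peroxidase detection at A450; IC50 from % inhibition versus enzyme-free blank.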

O=c1ccn2ccn(Cc3ccc(Cl)cc3)c(=O)c2c1O [Example 151, 2-(4-chlorobenzyl)-9-hydroxy-2H-pyrido[1,2-a]pyrazine-1,8-dione hydrochloride] and O=c1ccn2ccn(Cc3ccc(Br)cc3)c(=O)c2c1O [Example 157, 2-(4-bromobenzyl)-9-hydroxy-2H-pyrido[1,2-a]pyrazine-1,8-dione hydrochloride] fall in the same range of IC50: 10 to 100 nM for the first, 10 to 100 nM for the second.

First: O=C(O)c1cn2ccn(Cc3cccc(Cl)c3)c(=O)c2c(O)c1=O [Example 152, 2-(3-chlorobenzyl)-9-hydroxy-1,8-dioxo-1,8-dihydro-2H-pyrido[1,2-a]pyrazine-7-carboxylic acid hydrochloride]
Second: NC(=O)c1cn2ccn(Cc3cccc(Cl)c3)c(=O)c2c(O)c1=O [Example 167, 2-(3-chlorobenzyl)-9-hydroxy-1,8-dioxo-1,8-dihydro-2H-pyrido[1,2-a]pyrazine-7-carboxamide]
The IC50 of the first is higher: 100 to 1000 nM for the first, 10 to 100 nM for the second.

CN(C)C(=O)c1cn2ccn(Cc3cccc(Cl)c3)c(=O)c2c(O)c1=O [Example 153, N,N-dimethyl-2-(3-chlorobenzyl)-9-hydroxy-1,8-dioxo-1,8-dihydro-2H-pyrido[1,2-a]pyrazine-7-carboxamide] and CCN(CC)C(=O)c1cn2ccn(Cc3cccc(Cl)c3)c(=O)c2c(O)c1=O [Example 156, N,N-diethyl-2-(3-chlorobenzyl)-9-hydroxy-1,8-dioxo-1,8-dihydro-2H-pyrido[1,2-a]pyrazine-7-carboxamide] fall in the same range of IC50: 10 to 100 nM for the first, 10 to 100 nM for the second.

CC(C)NC(=O)c1cn2ccn(Cc3cccc(Cl)c3)c(=O)c2c(O)c1=O [Example 154, 2-(3-chlorobenzyl)-9-hydroxy-1,8-dioxo-1,8-dihydro-2H-pyrido[1,2-a]pyrazine-7-carboxylic acid isopropylamide] and CC(C)CNC(=O)c1cn2ccn(Cc3cccc(Cl)c3)c(=O)c2c(O)c1=O [Example 173, N-isobutyl-2-(3-chlorobenzyl)-9-hydroxy-1,8-dioxo-1,8-dihydro-2H-pyrido[1,2-a]pyrazine-7-carboxamide] fall in the same range of IC50: 10 to 100 nM for the first, 10 to 100 nM for the second.

CNC(=O)c1cn2ccn(Cc3cccc(Cl)c3)c(=O)c2c(O)c1=O [Example 155, N-methyl-2-(3-chlorobenzyl)-9-hydroxy-1,8-dioxo-1,8-dihydro-2H-pyrido[1,2-a]pyrazine-7-carboxamide] and CCNC(=O)c1cn2ccn(Cc3cccc(Cl)c3)c(=O)c2c(O)c1=O [Example 175, N-ethyl-2-(3-chlorobenzyl)-9-hydroxy-1,8-dioxo-1,8-dihydro-2H-pyrido[1,2-a]pyrazine-7-carboxamide] cannot be ordered by IC50: under 10 nM for the first, under 10 nM for the second.

O=c1ccn2ccn(Cc3cccc(Br)c3)c(=O)c2c1O [Example 158, 2-(3-bromobenzyl)-9-hydroxy-2H-pyrido[1,2-a]pyrazine-1,8-dione hydrochloride] and COc1c(Cl)cccc1Cn1ccn2ccc(=O)c(O)c2c1=O [Example 168, 2-(3-chloro-2-methoxybenzyl)-9-hydroxy-2H-pyrido[1,2-a]pyrazine-1,8-dione hydrochloride] fall in the same range of IC50: 10 to 100 nM for the first, 10 to 100 nM for the second.

Compared with CC(C)(C)COC(=O)c1cn2ccn(Cc3cccc(Cl)c3)c(=O)c2c(O)c1=O [Example 159, 2,2-dimethylpropyl 2-(3-chlorobenzyl)-9-hydroxy-1,8-dioxo-1,8-dihydro-2H-pyrido[1,2-a]pyrazine-7-carboxylate], CCCNC(=O)c1cn2ccn(Cc3cccc(Cl)c3)c(=O)c2c(O)c1=O [Example 171, N-propyl-2-(3-chlorobenzyl)-9-hydroxy-1,8-dioxo-1,8-dihydro-2H-pyrido[1,2-a]pyrazine-7-carboxamide] is lower in IC50: 10 to 100 nM for the first, under 10 nM for the second.

O=C(OC1CCCCC1)c1cn2ccn(Cc3cccc(Cl)c3)c(=O)c2c(O)c1=O [Example 160, cyclohexyl 2-(3-chlorobenzyl)-9-hydroxy-1,8-dioxo-1,8-dihydro-2H-pyrido[1,2-a]pyrazine-7-carboxylate] and O=C(NCCO)c1cn2ccn(Cc3cccc(Cl)c3)c(=O)c2c(O)c1=O [Example 178, N-(2-hydroxyethyl)-2-(3-chlorobenzyl)-9-hydroxy-1,8-dioxo-1,8-dihydro-2H-pyrido[1,2-a]pyrazine-7-carboxamide] fall in the same range of IC50: 10 to 100 nM for the first, 10 to 100 nM for the second.

Nc1cn2ccn(Cc3cccc(Cl)c3)c(=O)c2c(O)c1=O [Example 161, 7-amino-2-(3-chlorobenzyl)-9-hydroxy-2H-pyrido[1,2-a]pyrazine-1,8-dione hydrochloride] and CC(=O)Nc1cn2ccn(Cc3cccc(Cl)c3)c(=O)c2c(O)c1=O [Example 165, N-[2-(3-chlorobenzyl)-9-hydroxy-1,8-dioxo-1,8-dihydro-2H-pyrido[1,2-a]pyrazin-7-yl]acetamide] fall in the same range of IC50: 10 to 100 nM for the first, 10 to 100 nM for the second.

Cc1nn(Cc2cccc(Cl)c2)c(=O)c2c(O)c(=O)ccn12 [Example 162, 2-(3-chlorobenzyl)-9-hydroxy-4-methyl-2H-pyrido[1,2-d][1,2,4]triazine-1,8-dione hydrochloride] and O=c1c(-c2nnc[nH]2)cn2ccn(Cc3cccc(Cl)c3)c(=O)c2c1O [Example 164, 2-(3-chlorobenzyl)-9-hydroxy-7-(4H-1,2,4-triazol-3-yl)-2H-pyrido[1,2-a]pyrazine-1,8-dione hydrochloride] fall in the same range of IC50: 10 to 100 nM for the first, 10 to 100 nM for the second.

First: O=c1c(-c2nccs2)cn2ccn(Cc3cccc(Cl)c3)c(=O)c2c1O [Example 163, 2-(3-chlorobenzyl)-9-hydroxy-7-(thiazol-2-yl)-2H-pyrido[1,2-a]pyrazine-1,8-dione hydrochloride]
Second: O=c1c(-c2ncccn2)cn2ccn(Cc3cccc(Cl)c3)c(=O)c2c1O [Example 170, 2-(3-chlorobenzyl)-9-hydroxy-7-(pyrimidin-2-yl)-2H-pyrido[1,2-a]pyrazine-1,8-dione hydrochloride]
The IC50 of the first is lower: under 10 nM for the first, 10 to 100 nM for the second. The first is the more potent here.

First: COc1cc(Cl)ccc1Cn1ccn2ccc(=O)c(O)c2c1=O [Example 166, 2-(4-chloro-2-methoxybenzyl)-9-hydroxy-2H-pyrido[1,2-a]pyrazine-1,8-dione hydrochloride]
Second: O=c1ccn2ccn(CCOc3ccccc3Cl)c(=O)c2c1O [Example 169, 2-[2-(2-chlorophenoxy)ethyl]-9-hydroxy-2H-pyrido[1,2-a]pyrazine-1,8-dione hydrochloride]
The IC50 of the first is lower: 10 to 100 nM for the first, 100 to 1000 nM for the second. The first is the more potent here.

First: CCCCNC(=O)c1cn2ccn(Cc3cccc(Cl)c3)c(=O)c2c(O)c1=O [Example 172, N-butyl-2-(3-chlorobenzyl)-9-hydroxy-1,8-dioxo-1,8-dihydro-2H-pyrido[1,2-a]pyrazine-7-carboxamide]
Second: COCCNC(=O)c1cn2ccn(Cc3cccc(Cl)c3)c(=O)c2c(O)c1=O [Example 176, N-(2-methoxyethyl)-2-(3-chlorobenzyl)-9-hydroxy-1,8-dioxo-1,8-dihydro-2H-pyrido[1,2-a]pyrazine-7-carboxamide]
The IC50 of the first is lower: under 10 nM for the first, 10 to 100 nM for the second.

COC(=O)CNC(=O)c1cn2ccn(Cc3cccc(Cl)c3)c(=O)c2c(O)c1=O [Example 174, methyl{[2-(3-chlorobenzyl)-9-hydroxy-1,8-dioxo-1,8-dihydro-2H-pyrido[1,2-a]pyrazine-7-carbonyl]amino}acetate] and O=C(NCCOC(=O)C(F)(F)F)c1cn2ccn(Cc3cccc(Cl)c3)c(=O)c2c(O)c1=O [Example 177, 2-{[2-(3-chlorobenzyl)-9-hydroxy-1,8-dioxo-1,8-dihydro-2H-pyrido[1,2-a]pyrazine-7-carbonyl]amino}ethyl trifluoroacetate] fall in the same range of IC50: 10 to 100 nM for the first, 10 to 100 nM for the second.
